Tests used:
[1] = LNP formulation screening: physical characteristics; type: physicochemical; details: LNP with surrogate RNA coding for luciferase
Protocol: (§1) An exemplary LNP delivery system was developed to effectively and safely deliver therapeutic nucleic acids into the cytosol of various cell types after local administration in vivo. The early formulation work was performed with several promising LNP formulations and surrogate RNA coding for luciferase. The aim of the experiments was to correlate the effect of different ionizable cationic lipids on the efficacy of RNA delivery by LNPs in vivo. Formulations were compared in terms of RNA encapsulation efficiency, apparent pKa, LNP size and polydispersity.

liver = experiment: in vivo screening of LNP with luciferase (Luc) RNA, intravenous administration
Protocol: as §1
Based on this the ALC-0315/DSPC/CHOL/ALC-0159 prototype was submitted for in vivo screening. The results presented in FIG. 16 summarize the in vivo testing of two independent pilot batches using luciferase (Luc) RNA.
The formulation screening procedure described above involves intravenous administration resulting in delivery primarily to the liver. The mechanism of LNP uptake into hepatocytes is driven by binding of endogenous apolipoproteins to the LNP followed by receptor-mediated endocytosis e.g. through low density lipoprotein receptors. […] Luc expression was monitored at 4, 24, 72 and 96 hours post administration (FIG. 17).

Compound: CCCCCCCCC(CCCCCC)C(=O)OCCCCCCN(CCCCO)CCCCCCOC(=O)C(CCCCCC)CCCCCCCC (centres unmarked) [ALC-0315, ((4-hydroxybutyl)azanediyl)bis(hexane-6,1-diyl)bis(2-hexyldecanoate)]
- physical characteristics regarding particle size, homogeneity, and RNA encapsulation efficiency [1]: suitable
- potency as cationic lipid (liver): highly potent

— US11779659B2, “RNA constructs and uses thereof” (priority 2020, dated 2023)
